Data from patent publication US9567339B2, “Primary carboxamides as BTK inhibitors” (AbbVie Inc., priority 2013, dated 2017).
Read-outs that look alike come from different tables or passages of the source.

Molecular target: BTK, recombinant human catalytic domain (aa 393-659) (Homo sapiens (Human), UniProt Q06187)
Test: In vitro BTK kinase activity measured by time-resolved fluorescence resonance energy transfer (trFRET)
Type: biochemical
Conditions: read-out: Btk IC50
[1] = trFRET, 0.001 mM ATP, biotin-TYR1 peptide substrate

Chain of BTK, recombinant human catalytic domain (aa 393-659) (Q06187 393-659): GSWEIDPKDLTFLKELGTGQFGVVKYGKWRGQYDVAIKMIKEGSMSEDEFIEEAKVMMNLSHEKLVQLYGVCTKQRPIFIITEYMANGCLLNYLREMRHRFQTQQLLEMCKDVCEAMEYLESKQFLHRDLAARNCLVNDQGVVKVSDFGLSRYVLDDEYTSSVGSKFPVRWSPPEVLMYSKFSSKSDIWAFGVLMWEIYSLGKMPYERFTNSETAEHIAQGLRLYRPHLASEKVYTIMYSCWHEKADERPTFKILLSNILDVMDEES

Structure (SMILES)	IC50 [1] [nM]	IC50 [nM]
Cc1c(NC(=O)c2ccc(C(F)F)cc2)cccc1-c1ccc(C(N)=O)c2[nH]c(-c3cncnc3)cc12 [A.13.3]	100 to 1000	
C=CC(=O)Nc1cccc(-c2ccc(C(N)=O)c3[nH]c(-c4ccnn4C)cc23)c1C [A.1.11]	< 100	
C=CC(=O)Nc1ccc(F)c(-c2ccc(C(N)=O)c3[nH]ccc23)c1F [E.1.20]		< 100
NC(=O)c1ccc(N2CCCC(n3cnc4cc(C5CC5)cc(F)c4c3=O)C2)c2cc[nH]c12 (stereo not shown) [O.1.13]		1000 to 10000
CS(=O)(=O)N1CC=C(c2cc3c(N4CCC[C@@H](NC(=O)c5nccs5)C4)ccc(C(N)=O)c3[nH]2)CC1 [Example 13A, (R)—N-(1-(7-Carbamoyl-2-(1-(methylsulfonyl)-1,2,3,6-tetrahydropyridin-4-yl)-1H-indol-4-yl)piperidin-3-yl)thiazole-2-carboxamide]	< 100	
Cc1c(NCCO)cccc1-c1ccc(C(N)=O)c2[nH]c(C3=CCN(S(C)(=O)=O)CC3)cc12 [A.4.13]	< 100	
C=CC(=O)Nc1cccc(-c2ccc(C(N)=O)c3[nH]c(-c4ccc(C(N)=O)cc4)cc23)c1C [A.1.45]	< 100	
NC(=O)c1ccc(-c2cncc(N)c2)c2cc[nH]c12 [A.5.4, 4-(5-aminopyridin-3-yl)-1H-indole-7-carboxamide]	1000 to 10000	
C=CC(=O)N1CCC[C@H](c2ccc(C(N)=O)c3[nH]c(C)cc23)C1 [E.9.8]		< 100
NC(=O)c1ccc(-c2cccc(NC(=O)/C=C/C(=O)NC3CC3)c2)c2cc[nH]c12 [D.4.4]	1000 to 10000	
C=CC(=O)N1CC[C@@H](c2ccc(C(N)=O)c3[nH]c(-c4cc5n(n4)CCOC5)cc23)C1 [E.9.27]		< 100
C=CC(=O)N1CC(N(C)c2ccc(C(N)=O)c3[nH]c(-c4ccc(CN5CCOCC5)cn4)cc23)C1 [E.9.13]		< 100
Cn1cc(-c2cc3c(N4CCC[C@@H](NC(=O)c5ccc(OC(F)(F)F)cc5)C4)ccc(C(N)=O)c3[nH]2)cn1 [O.1.24*]		100 to 1000
C=CC(=O)Nc1cccc(-c2ccc(C(N)=O)c3[nH]c(-c4cccnc4OC)cc23)c1C [A.1.18]	< 100	
CC(C)(C)c1ccc(C(=O)N[C@@H]2CCCN(c3ccc(C(N)=O)c4[nH]ccc34)C2)cc1 [O.1.11*]		1000 to 10000
CCC(=O)N1CC[C@H](c2ccc(C(N)=O)c3[nH]c(C)cc23)C1 [E.10.1]		100 to 1000

Further lines, results first:

IC50 [1] [nM]	IC50 [nM]	Structure (SMILES)
	< 100	C=CC(=O)N1CC(N(C)c2ccc(C(N)=O)c3[nH]c(-c4ccc5c(c4)OCCC5)cc23)C1 [E.9.12]
	1000 to 10000	C=CC(=O)Nc1cc(OCc2nccs2)ccc1-c1ccc(C(N)=O)c2[nH]ccc12 [E.1.16]
	1000 to 10000	CCC(=O)NCc1ccccc1-c1cc2c(-c3cccc(NC(=O)c4nccs4)c3C)ccc(C(N)=O)c2[nH]1 [E.4.2]
	< 100	Cc1c(NC(=O)COc2ccccc2)cccc1-c1ccc(C(N)=O)c2[nH]c(C3=CCN(S(C)(=O)=O)CC3)cc12 [D.7.21]
< 100		Cc1ccc2c(c1)C(=O)N(c1cccc(-c3ccc(C(N)=O)c4[nH]c(-c5cccnc5)cc34)c1C)C2 [A.7.5]
100 to 1000		Cc1c(NC(=O)/C=C/CN(C)C)cccc1-c1ccc(C(N)=O)c2[nH]ccc12 [J.1, (E)-4-(3-(4-(Dimethylamino)but-2-enamido)-2-methylphenyl)-1H-indole-7-carboxamide]
	100 to 1000	Cn1cc(-c2cc3c(N4CCC[C@@H](n5cnc6ccccc6c5=O)C4)ccc(C(N)=O)c3[nH]2)cn1 [O.1.16*]
< 100		C=CC(=O)Nc1cccc(-c2ccc(C(N)=O)c3[nH]c(-c4ccc(F)nc4)cc23)c1C [A.1.16]
	< 100	C=CC(=O)N1CCOC[C@@H](c2ncc(C(N)=O)c3[nH]ccc23)C1 [E.9.30]
	100 to 1000	C=CC(=O)N1CC[C@H](c2ccc(C(N)=O)c3[nH]c(C)cc23)C1 [E.9.41*]
< 100		NC(=O)c1ccc(-c2cccnc2)c2cc(-c3ccc(F)cc3)[nH]c12 [A.9.2]
< 100		C=CC(=O)Nc1cccc(-c2ccc(C(N)=O)c3[nH]c(C4=CCC(F)(F)CC4)cc23)c1C [E.1, 4-(3-Acrylamido-2-methylphenyl)-2-(4,4-difluorocyclohex-1-en-1-yl)-1H-indole-7-carboxamide]
